The results in this text go back to paper PMC6804140, “Peptidomic Approach for the Identification of Peptides with Potential Antioxidant and Anti-Hyperthensive Effects Derived From Asparagus By-Products” (Molecules, 2019).

The assay deals with T1, ACE from rabbit lung (Oryctolagus cuniculus, UniProt P12822).
T1 construct: ACE from rabbit lung; purchased Sigma-Aldrich (St. Louis, MO, USA); host or cells: rabbit lung tissue
T1 sequence (P12822 34-1310): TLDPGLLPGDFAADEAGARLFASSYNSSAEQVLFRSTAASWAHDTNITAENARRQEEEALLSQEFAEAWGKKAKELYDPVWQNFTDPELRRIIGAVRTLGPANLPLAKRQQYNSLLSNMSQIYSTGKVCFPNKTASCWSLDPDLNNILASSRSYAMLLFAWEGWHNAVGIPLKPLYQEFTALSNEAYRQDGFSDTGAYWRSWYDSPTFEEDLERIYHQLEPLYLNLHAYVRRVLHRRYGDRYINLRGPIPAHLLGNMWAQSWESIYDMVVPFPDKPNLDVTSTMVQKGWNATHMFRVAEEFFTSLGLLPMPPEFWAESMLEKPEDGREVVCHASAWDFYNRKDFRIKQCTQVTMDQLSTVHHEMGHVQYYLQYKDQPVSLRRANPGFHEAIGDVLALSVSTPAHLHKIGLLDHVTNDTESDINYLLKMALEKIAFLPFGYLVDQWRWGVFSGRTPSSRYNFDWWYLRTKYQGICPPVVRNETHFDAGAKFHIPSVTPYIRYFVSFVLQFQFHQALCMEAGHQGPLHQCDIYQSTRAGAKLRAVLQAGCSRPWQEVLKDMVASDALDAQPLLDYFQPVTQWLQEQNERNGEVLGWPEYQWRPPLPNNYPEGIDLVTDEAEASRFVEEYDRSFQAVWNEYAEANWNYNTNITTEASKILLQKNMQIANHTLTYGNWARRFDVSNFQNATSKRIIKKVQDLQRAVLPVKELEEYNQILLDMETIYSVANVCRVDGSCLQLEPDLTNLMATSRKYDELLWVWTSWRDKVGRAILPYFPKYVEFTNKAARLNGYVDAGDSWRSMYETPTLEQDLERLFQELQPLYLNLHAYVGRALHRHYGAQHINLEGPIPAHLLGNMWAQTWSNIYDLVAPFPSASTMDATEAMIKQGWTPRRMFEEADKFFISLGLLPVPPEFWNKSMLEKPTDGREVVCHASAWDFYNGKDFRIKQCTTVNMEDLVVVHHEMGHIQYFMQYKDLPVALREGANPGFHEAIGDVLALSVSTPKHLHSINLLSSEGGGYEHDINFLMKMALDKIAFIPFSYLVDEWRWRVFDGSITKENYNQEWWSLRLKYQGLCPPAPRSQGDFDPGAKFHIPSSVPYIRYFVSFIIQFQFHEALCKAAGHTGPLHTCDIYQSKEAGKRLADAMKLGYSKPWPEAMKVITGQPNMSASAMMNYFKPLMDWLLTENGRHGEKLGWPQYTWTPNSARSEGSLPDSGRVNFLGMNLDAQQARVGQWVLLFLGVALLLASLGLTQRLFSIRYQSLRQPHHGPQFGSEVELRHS
In words: ACE-inhibitory assay. It is filed as biochemical. To be noted: synthetic peptide (90%); pH 8.3, 37 °C, 90 min, 228 nm; fit Origin 9.0; ± SD in Table 1; read-out: EC50 value, ACE inhibition assay.

Ends that are not written are not given here.

Consider ASQSIWLPGWL [ASQSIWLPGWL], for which the EC50 stood at 4.02 ± 1.79 µM.
In the case of PDWFLLL [PDWFLLL], the EC50 is 5.74 ± 2.35 µM.

What is called EC50 is the concentration at which the effect is half-maximal.
